According to US20030157084A1, “Methods for preparing purified prostaglandin E synthase” (priority 2001, published 2003):
Entries after “also recorded” stand apart in the source; their conditions may differ.

T1: purified His6-hPGES (Homo sapiens, UniProt O14684)
T1 sequence (O14684 1-152): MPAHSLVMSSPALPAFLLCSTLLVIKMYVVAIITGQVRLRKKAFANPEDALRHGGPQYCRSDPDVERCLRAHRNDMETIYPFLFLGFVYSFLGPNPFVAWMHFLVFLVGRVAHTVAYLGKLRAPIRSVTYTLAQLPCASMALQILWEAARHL


Experiments:
purified His6-hPGES [1] = target: T1, purified His6-hPGES; assay: Glutathione transferase (GST) activity of purified His6-hPGES with CDNB; type: biochemical; design: made in house; host or cells: E. coli BL21(DE3) with pLysSL; settings: purified His6-hPGES incubated with LTA4
Description: Glutathione transferase (GST) activity (glutathione conjugation) was assayed with the classical model substrate for GSTs, p-chloro-2,4-dinitrobenzene (CDNB). […] Formation of product was detected at 340 nm (molar absorption coefficient for the product, GS-DNB, is 9.6 mM^−1 cm^−1).

purified His6-hPGES [2] = target: T1, purified His6-hPGES; assay: LTC4 synthase activity of purified His6-hPGES with LTA4; type: biochemical; design: made in house; host or cells: E. coli BL21(DE3) with pLysSL; settings: 37 ° C.; up to 100 μg/ml enzyme, 30 μM LTA4, 10 mM GSH, pH 7.4
[3] = Kinetic properties of other enzymes with PGE synthase activity (literature); type: biochemical; settings: cytosolic PGES versus His6-hPGES
[4] = 24° C.; Tanioka et al. (2000); cited from earlier work

| Molecule | GST activity after incubation of the enzyme with LTA4 (purified His6-hPGES [1]) | Specific activity (LTC4 synthase activity) (purified His6-hPGES [2]) | Vmax compared with specific activity of purified His6-hPGES, times lower [3] | published Vmax [4] |
| --- | --- | --- | --- | --- |
| CCCCC/C=C\C\C=C/C=C/C=C/[C@@H]1O[C@H]1CCCC(=O)O [LTA4, leukotriene (LT) A4] | no GST activity could be detected | No activity above background could be detected; also recorded: Not detectable above background | – | – |
| Cytosolic PGES LPS-induced: enzyme with PGE synthase activity, Rat, brain (Tanioka et al. 2000); recently identified cytosolic PGES (protein, UniProt P83868 1-160, looked up) Prostaglandin E synthase 3: MQPASAKWYDRRDYVFIEFCVEDSKDVNVNFEKSKLTFSCLGGSDNFKHLNEIDLFHCIDPNDSKHKRTDRSILCCLRKGESGQSWPRLTKERAKLNWLSVDFNNWKDWEDDSDEDMSNFDRFSEMMDHMGGDEDVDLPEVDGADDDSQDSDDEKMPDLE | – | – | about 1,000 times | 0.19 µmol/min/mg |
